Reference: patent publication US20210355104A1, “ADENOSINE RECEPTOR BINDING COMPOUNDS” (Nikang Therapeuticsm Inc., priority 2018, published 2021)
Where “and” joins values, the source holds several entries; their conditions need not be identical. Equal values may be shown once.

Experiments:
[1] = biological target: T1, Adenosine A2A receptor (Homo sapiens, UniProt P29274); assay: cAMP assay in 293A cells stably expressing the adenosine A2A receptor (CGS21680 stimulation, HTRF); assay type: cell-based; design: expressed in transfected cells; host or cells: 293A cells (Invitrogen, Cat# R705-07) infected with A2A-expressing lentivirus (custom packaged by Biosettia), puromycin selected; details: 293A-A2AR cells, 0.1% BSA, values separated by / are repeat determinations
[2] = biological target: T1, Adenosine A2A receptor; assay: Adenosine A2A receptor competitive binding assay (Tag-lite HTRF); details: Tag-lite adenosine A2A receptor ligand binding, 2 h room temperature; values separated by / are repeat determinations
Procedure: Adenosine A2A Receptor Competitive Binding Assay
The Tag-lite adenosine A2A receptor ligand binding assay is a homogeneous alternative to radioligand binding assay and developed by Cisbio (Bedford, Mass.). We carried out this assay following Cisbio's instructions with minor modification. Pre-transfected, fluorescent donor-labelled cells (Cisbio Cat#: C1TT1A2A, 200 testes) was stored at −80° C. and thawed right before use. Cells were washed once with 5 ml TLB and gently resuspended in 2 ml TLB. 4 μl suspended cells was dispensed into each well of white low-volume 384-well plate (Greiner Bio-One). Serial dilutions of compounds were prepared in Tag-lite buffer (TLB, Cisbio Cat #: LABMED) to a DMSO concentration of 0.6%. After adding 4 μl of compound dilutions to each well, 4 μl60 nM Adenosine A2A receptor red antagonist fluorescent ligand (Cisbio Cat #: L0058RED) was dispensed to each well. The 384-well assay plate was centrifuged briefly and incubated at room temperature for 2 h. HTRF signals were measured using CIARIOstar plate reader (BMG Labtech).

[3] = 8 nM CGS, read-out: cAMP (nM) 0.1% BSA, 8 nM CGS
[4] = 1 uM CGS, read-out: cAMP (nM) 0.1% BSA, 1 uM CGS

T1 sequence (P29274 whole entry): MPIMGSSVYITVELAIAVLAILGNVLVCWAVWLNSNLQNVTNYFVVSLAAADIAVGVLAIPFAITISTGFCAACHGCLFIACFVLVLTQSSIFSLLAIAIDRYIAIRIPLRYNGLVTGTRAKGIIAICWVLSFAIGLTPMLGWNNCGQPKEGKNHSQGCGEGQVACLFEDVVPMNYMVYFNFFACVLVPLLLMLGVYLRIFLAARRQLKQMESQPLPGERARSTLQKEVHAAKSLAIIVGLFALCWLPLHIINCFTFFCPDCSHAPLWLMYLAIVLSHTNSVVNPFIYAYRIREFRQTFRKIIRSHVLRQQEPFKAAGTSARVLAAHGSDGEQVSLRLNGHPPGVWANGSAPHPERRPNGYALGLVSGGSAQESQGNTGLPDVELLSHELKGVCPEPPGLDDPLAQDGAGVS

| IC50 [1, 3] | IC50 [1, 4] | IC50 [2] | SMILES |
| --- | --- | --- | --- |
| 40 nM and 17 nM | 4040 nM | 11.1 nM | CNC(=O)COc1nc(N)nc(-c2ccccc2)c1-c1cc(C)nc(C(F)(F)F)c1 [Example 1, 2-((2-amino-5-(2-methyl-6-(trifluoromethyl)pyridin-4-yl)-6-phenylpyrimidin-4-yl)oxy)-N-methylacetamide] |
| 6.8 nM and 3.4 nM |  | 30.5 nM | Cc1cc(-c2c(OCC(=O)N(C)C)nc(N)nc2-c2ccccc2)cc(C(F)(F)F)n1 [Example 2, 2-((2-amino-5-(2-methyl-6-(trifluoromethyl)pyridin-4-yl)-6-phenylpyrimidin-4-yl)oxy)-N,N-dimethylacetamide] |
| 482 nM and 288 nM | 23100 nM | 139 nM | Cc1cc(-c2c(NCc3cccc(CO[C@H]4CCOC4)n3)nc(N)nc2-c2ccccc2)cc(C(F)(F)F)n1 [Example 4, (S)-5-(2-methyl-6-(trifluoromethyl)pyridin-4-yl)-6-phenyl-N4-((6-(((tetrahydrofuran-3-yl)oxy)methyl)pyridin-2-yl)methyl)pyrimidine-2,4-diamine] |
| 11.5 nM |  | 8.97 nM | Cc1cc(-c2c(OCc3cccc(CO[C@H]4CCOC4)n3)nc(N)nc2-c2ccccc2)cc(C(F)(F)F)n1 [Example 5, (S)-5-(2-methyl-6-(trifluoromethyl)pyridin-4-yl)-4-phenyl-6-((6-(((tetrahydrofuran-3-yl)oxy)methyl)pyridin-2-yl)methoxy)pyrimidin-2-amine] |
| 183 nM |  | 74.3 nM | Cc1cc(-c2c(OCCCN3CCN(c4ccc(F)cc4F)CC3)nc(N)nc2-c2ccccc2)cc(C(F)(F)F)n1 [Example 6, 4-(3-(4-(2,4-difluorophenyl)piperazin-1-yl)propoxy)-5-(2-methyl-6-(trifluoromethyl)pyridin-4-yl)-6-phenylpyrimidin-2-amine] |
| 380 nM |  | 58 nM | Cc1cc(-c2c(OCc3cccc(CO[C@H]4CCOC4)n3)nc(N)nc2-c2ccc(C)o2)cc(C(F)(F)F)n1 [Example 7, (S)-5-(2-methyl-6-(trifluoromethyl)pyridin-4-yl)-4-(5-methylfuran-2-yl)-6-((6-(((tetrahydrofuran-3-yl)oxy)methyl)pyridin-2-yl)methoxy)pyrimidin-2-amine] |
| 7.4 nM and 7.7 nM |  | 10.2 nM and 18 nM | Cc1cc(-c2c(OCCc3ccccc3)nc(N)nc2-c2ccccc2)cc(C(F)(F)F)n1 [Example 8, 5-(2-methyl-6-(trifluoromethyl)pyridin-4-yl)-4-phenethoxy-6-phenylpyrimidin-2-amine] |
| 8.8 nM and 51.5 nM and 24.2 nM |  | 25.2 nM | Cc1cc(-c2c(OCC(=O)N3CCOCC3)nc(N)nc2-c2ccccc2)cc(C(F)(F)F)n1 [Example 10, 2-((2-amino-5-(2-methyl-6-(trifluoromethyl)pyridin-4-yl)-6-phenylpyrimidin-4-yl)oxy)-1-morpholinoethan-1-one] |
| 3.2 nM |  | 7.21 nM | CCN(CC)C(=O)COc1nc(N)nc(-c2ccco2)c1-c1cc(C)nc(C(F)(F)F)c1 [Example 11, 2-((2-amino-6-(furan-2-yl)-5-(2-methyl-6-(trifluoromethyl)pyridin-4-yl)pyrimidin-4-yl)oxy)-N,N-diethylacetamide] |
| 2 nM |  | 13.8 nM | CCN(CC)C(=O)COc1nc(N)nc(-c2ccc(C)o2)c1-c1cc(C)nc(C(F)(F)F)c1 [Example 12, 2-((2-amino-5-(2-methyl-6-(trifluoromethyl)pyridin-4-yl)-6-(5-methylfuran-2-yl)pyrimidin-4-yl)oxy)-N,N-diethylacetamide] |
| 161 nM |  | 303 nM | CCN(CC)C(=O)[C@@H](C)Oc1nc(N)nc(-c2ccccc2)c1-c1cc(C)nc(C(F)(F)F)c1 [Example 13, (R)-2-((2-amino-5-(2-methyl-6-(trifluoromethyl)pyridin-4-yl)-6-phenylpyrimidin-4-yl)oxy)-N,N-diethylpropanamide] |
| 10000 nM |  | 900 nM | CCN(CC)C(=O)[C@H](C)Oc1nc(N)nc(-c2ccccc2)c1-c1cc(C)nc(C(F)(F)F)c1 [Example 14, (S)-2-((2-amino-5-(2-methyl-6-(trifluoromethyl)pyridin-4-yl)-6-phenylpyrimidin-4-yl)oxy)-N,N-diethylpropanamide] |
| 0.5 nM and 2.1 nM |  | 3.2 nM | CCN(CC)C(=O)COc1nc(N)nc(-c2ccccc2)c1-c1cc(C)nc(C(F)F)c1 [Example 15, 2-((2-amino-5-(2-(difluoromethyl)-6-methylpyridin-4-yl)-6-phenylpyrimidin-4-yl)oxy)-N,N-diethylacetamide] |
| 6.5 nM |  | 1.47 nM | CCN(CC)C(=O)COc1nc(N)nc(-c2ccccc2)c1-c1cc(C)nc(C(C)(F)F)c1 [Example 16, 2-((2-amino-5-(2-(1,1-difluoroethyl)-6-methylpyridin-4-yl)-6-phenylpyrimidin-4-yl)oxy)-N,N-diethylacetamide] |
| 7.5 nM |  | 9.01 nM | CCN(CC)C(=O)COc1nc(N)nc(-c2ccccc2)c1-c1cc(C)nc(C(F)(F)CC)c1 [Example 17, 2-((2-amino-5-(2-(1,1-difluoropropyl)-6-methylpyridin-4-yl)-6-phenylpyrimidin-4-yl)oxy)-N,N-diethylacetamide] |
| 0.44 nM and 1.3 nM |  | 7.56 nM | CCN(CC)C(=O)COc1nc(N)nc(-c2ccc(F)cc2)c1-c1cc(C)nc(C(F)F)c1 [Example 28, 2-([2-amino-5-[2-(difluoromethyl)-6-methylpyridin-4-yl]-6-(4-fluorophenyl)pyrimidin-4-yl]oxy)-N,N-diethylacetamide] |
| 2 nM and 2.7 nM |  | 7.74 nM | CCNC(=O)COc1nc(N)nc(-c2ccccc2)c1-c1cc(C)nc(C(F)(F)F)c1 [Example 29, 2-([2-amino-5-[2-methyl-6-(trifluoromethyl)pyridin-4-yl]-6-phenylpyrimidin-4-yl]oxy)-N-ethylacetamide] |
| 6.1 nM and 6.7 nM |  | 13.9 nM | CNC(=O)COc1nc(N)nc(-c2ccc(F)cc2)c1-c1cc(C)nc(C(F)F)c1 [Example 32, 2-((2-amino-5-(2-(difluoromethyl)-6-methylpyridin-4-yl)-6-(4-fluorophenyl)pyrimidin-4-yl)oxy)-N-methylacetamide] |
| 0.42 nM and 0.57 nM and 2.2 nM |  | 7.2 nM and 6.4 nM | CCNC(=O)COc1nc(N)nc(-c2ccc(F)cc2)c1-c1cc(C)nc(C(F)F)c1 [Example 39, 2-((2-amino-5-(2-(difluoromethyl)-6-methylpyridin-4-yl)-6-(4-fluorophenyl)pyrimidin-4-yl)oxy)-N-ethylacetamide] |
| 4.1 nM |  | 6.7 nM | Cc1cc(-c2c(OCC(=O)NC(C)C)nc(N)nc2-c2ccc(F)cc2)cc(C(F)F)n1 [Example 41, 2-((2-amino-5-(2-(difluoromethyl)-6-methylpyridin-4-yl)-6-(4-fluorophenyl)pyrimidin-4-yl)oxy)-N-isopropylacetamide] |
| 66 nM and 8.9 nM |  | 25.7 nM | COCCNC(=O)COc1nc(N)nc(-c2ccc(F)cc2)c1-c1cc(C)nc(C(F)F)c1 [Example 45, 2-((2-amino-5-(2-(difluoromethyl)-6-methylpyridin-4-yl)-6-(4-fluorophenyl)pyrimidin-4-yl)oxy)-N-(2-methoxyethyl)acetamide] |
| 0.45 nM and 0.84 nM and 2.1 nM | 1780 nM and 714 nM | 5.7 nM and 5.9 nM | Cc1cc(-c2c(OCCCS(C)(=O)=O)nc(N)nc2-c2ccc(F)cc2)cc(C(F)F)n1 [Example 46, 5-(2-(difluoromethyl)-6-methylpyridin-4-yl)-4-(4-fluorophenyl)-6-(3-(methylsulfonyl)propoxy)pyrimidin-2-amine] |
| 0.72 nM and 0.18 nM |  | 3.7 nM | COCCOc1nc(N)nc(-c2ccc(F)cc2)c1-c1cc(C)nc(C(F)F)c1 [Example 48, 5-(2-(difluoromethyl)-6-methylpyridin-4-yl)-4-(4-fluorophenyl)-6-(2-methoxyethoxy)pyrimidin-2-amine] |
| 3.9 nM |  | 10 nM | COC(=O)N1CCN(CCOc2nc(N)nc(-c3ccc(F)cc3)c2-c2cc(C)nc(C(F)F)c2)CC1 [Example 51, methyl 4-(2-((2-amino-5-(2-(difluoromethyl)-6-methylpyridin-4-yl)-6-(4-fluorophenyl)pyrimidin-4-yl)oxy)ethyl)piperazine-1-carboxylate] |
| 532 nM |  | 120 nM | Cc1cc(-c2c(OCCN3CCN(C4COC4)CC3)nc(N)nc2-c2ccc(F)cc2)cc(C(F)F)n1 [Example 52, 5-(2-(difluoromethyl)-6-methylpyridin-4-yl)-4-(4-fluorophenyl)-6-(2-(4-(oxetan-3-yl)piperazin-1-yl)ethoxy)pyrimidin-2-amine] |
| 0.67 nM |  | 13 nM | COCCOc1ccc(N2CCN(CCOc3nc(N)nc(-c4ccc(F)cc4)c3-c3cc(C)nc(C(F)F)c3)CC2)cc1 [Example 53, 5-(2-Difluoromethyl-6-methyl-pyridin-4-yl)-4-(4-fluoro-phenyl)-6-(2-{4-[4-(2-methoxy-ethoxy)-phenyl]-piperazin-1-yl}-ethoxy)-pyrimidin-2-ylamine] |
